Calls of active or inactive are those of the source.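 The calls were made as follows: active = at least one rat sex group has a carcinogenic potency value and tumor site recorded; inconclusive = only rat studies were judged inadequate by the national testing program; inactive = no potency or tumor site, with negative rat experiments.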 Where a SMILES comes first, the peptide text is derived from it.
System: rat chronic carcinogenicity bioassay, TD50
Assay: DSSTox (CPDBAS) Carcinogenic Potency Database Summary Rat Bioassay Results
Details: TD50_Rat_Note: TD50 is harmonic mean of more than one positive test; TargetSites_Rat_Female: clitoral gland; ear Zymbals gland; hematopoietic system; large intestine; liver; oral cavity; skin; small intestine; ute; active compounds read low
Summary of the method: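 The activity score maps log10(1/TD50_Rat_mmol) linearly onto 1–100; actives without a computed TD50, such as mixtures, receive 50. Source data are chronic rat carcinogenicity tests, using the most positive experiment for each sex.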

SMILES | Potency [mg/kg/day]
COc1cc(-c2ccc(N=Nc3c(S(=O)(=O)O)cc4cc(S(=O)(=O)O)cc(N)c4c3O)c(OC)c2)ccc1N=Nc1c(S(=O)(=O)O)cc2cc(S(=O)(=O)O)cc(N)c2c1O | 27.5

Same assay, conditions: TD50_Rat_Note: TD50 is harmonic mean of more than one positive test; TargetSites_Rat_Female: clitoral gland; ear Zymbals gland; lung; mammary gland; active compounds read low

SMILES | Potency [mg/kg/day]
O=[N+]([O-])c1ccc2c3c(cccc13)CC2 | 8.67

Same assay, conditions: TD50_Rat_Note: TD50 is harmonic mean of more than one positive test; TargetSites_Rat_Female: ear Zymbals gland; nasal cavity; oral cavity; stomach; vascular system; active compounds read low

SMILES | Potency [mg/kg/day]
c1ccccc1 | 169

Same assay, conditions: TD50_Rat_Note: TD50 is harmonic mean of more than one positive test; TargetSites_Rat_Female: liver; active compounds read low

SMILES | Potency [mg/kg/day]
ClC(Cl)Cl | 262
CCC1(c2ccccc2)C(=O)N=C(O)NC1=O (configuration not stated) | 86
Brc1cc(Br)c(-c2cc(Br)c(Br)cc2Br)cc1Br | 0.322
NC(=O)OCC(COC(N)=O)c1ccccc1 | 1090

Same assay, conditions: TD50_Rat_Note: TD50 is harmonic mean of more than one positive test; TargetSites_Rat_Female: liver; lung; vascular system; active compounds read low

SMILES | Potency [mg/kg/day]
CC(=O)CN(CC(C)=O)N=O | 0.491

Same assay, conditions: TD50_Rat_Note: TD50 is harmonic mean of more than one positive test; TargetSites_Rat_Female: liver; mammary gland; active compounds read low

SMILES | Potency [mg/kg/day]
Cc1ncc([N+](=O)[O-])n1CCO | 542
ClC(Cl)(Cl)Cl | 27.8

Same assay, conditions: TD50_Rat_Note: TD50 is harmonic mean of more than one positive test; TargetSites_Rat_Female: mammary gland; active compounds read low

SMILES | Potency [mg/kg/day]
NNc1nc(-c2ccc([N+](=O)[O-])cc2)cs1 | 3.21
C=CC(=C)C | 313

Same assay, conditions: TD50_Rat_Note: TD50 is harmonic mean of more than one positive test; TargetSites_Rat_Female: nasal cavity; active compounds read low

SMILES | Potency [mg/kg/day]
CC=O | 153

Same assay, conditions: TD50_Rat_Note: TD50 is harmonic mean of more than one positive test; TargetSites_Rat_Female: stomach; active compounds read low

SMILES | Potency [mg/kg/day]
C=CC(=O)OCC | 119

Same assay, conditions: TD50_Rat_Note: TD50 is harmonic mean of more than one positive test; TargetSites_Rat_Female: thyroid gland; active compounds read low

SMILES | Potency [mg/kg/day]
Cc1ncc[nH]1 | 868
O=c1cc[nH]c(=S)[nH]1 | 11.9
Nc1ccc(Cc2ccc(N)cc2)cc1 | 20

Same assay, conditions: TD50_Rat_Note: TD50 is harmonic mean of more than one positive test; greater than ten-fold variation among TD50 values for positive res; TargetSites_Rat_Female: esophagus; kidney; liver; nasal cavity; active compounds read low

SMILES | Potency [mg/kg/day]
O=NN(CCO)CCO | 3.17

Same assay, conditions: TD50_Rat_Note: TD50 is harmonic mean of more than one positive test; greater than ten-fold variation among TD50 values for positive res; TargetSites_Rat_Female: kidney; large intestine; liver; active compounds read low

SMILES | Potency [mg/kg/day]
ClC(Cl)Br | 72.5

Same assay, conditions: TD50_Rat_Note: TD50 is harmonic mean of more than one positive test; greater than ten-fold variation among TD50 values for positive res; TargetSites_Rat_Female: liver; mammary gland; subcutaneous tissue; active compounds read low

SMILES | Potency [mg/kg/day]
Cc1ccccc1[N+](=O)[O-] | 4.66

Same assay, conditions: TD50_Rat_Note: TD50 is harmonic mean of more than one positive test; greater than ten-fold variation among TD50 values for positive res; TargetSites_Rat_Female: peritoneal cavity; active compounds read low

SMILES | Potency [mg/kg/day]
Nc1ccccc1 | 269

Same assay, conditions: TD50_Rat_Note: TD50 is harmonic mean of more than one positive test; harmonic mean of TD50 includes a value for upper 99% confidence li; active compounds read low

SMILES | Potency [mg/kg/day]
CCSCCC(N)C(=O)O (configuration not stated) | 9.76

Same assay, conditions: TD50_Rat_Note: TD50 is harmonic mean of more than one positive test; active compounds read low

SMILES | Potency [mg/kg/day]
C=CC(OC(C)=O)c1ccc2c(c1)OCO2 (configuration not stated) | 25
O=C(O)C(Cl)Cl | 161
CN(CCCC(=O)c1cccnc1)N=O | 0.0999

Same assay, conditions: TD50_Rat_Note: no positive results

SMILES | outcome
Cc1cccc(C)c1NC1=NCCCS1 | inactive; no positive results
Cl | inactive; no positive results
Nc1ccccc1 | inactive; no positive results
CC[C@H](C)[C@H]1O[C@]2(CC[C@@H]1C)C[C@@H]1C[C@@H](C/C=C(\C)[C@@H](O[C@H]3C[C@H](OC)[C@@H](O[C@H]4C[C@H](OC)[C@@H](O)[C@H](C)O4)[C@H](C)O3)[C@@H](C)/C=C/C=C3\CO[C@@H]4[C@H](O)C(C)=C[C@@H](C(=O)O1)[C@]34O)O2 | inactive; no positive results
CN1C(=O)OC(C)(C)C1=O | inactive; no positive results
CC(=O)O[C@@H]1[C@@H](O)C2OC3C=C(C)C(=O)C(O)[C@@]3(CO)[C@]1(C)[C@]21CO1 (some centres not stated) | inactive; no positive results
Cc1ccc(-c2cc(C(F)(F)F)nn2-c2ccc(S(N)(=O)=O)cc2)cc1 | inactive; no positive results
O=C(O)CC(O)(CC(=O)O)C(=O)O | inactive; no positive results

Same assay, conditions: TD50_Rat_Note: no positive results; TargetSites_Rat_Female: no positive results

SMILES | outcome
CO[C@H]1/C=C/O[C@@]2(C)Oc3c(C)c(O)c4c(O)c(c(/C=N/N5CCN(C)CC5)c(O)c4c3C2=O)NC(=O)/C(C)=C\C=C\[C@H](C)[C@H](O)[C@@H](C)[C@@H](O)[C@@H](C)[C@H](OC(C)=O)[C@@H]1C | inactive; no positive results
C=C/C=N/O | inactive; no positive results
ClC(Cl)=C(Cl)c1c(Cl)c(Cl)c(Cl)c(Cl)c1Cl | inactive; no positive results
Cc1ccc(Cl)cc1N | inactive; no positive results
CC(=O)Nc1ccc(-c2ccccc2)cc1O | inactive
Nc1ccccc1-c1ccccc1 | inactive; no positive results
Nc1cc([N+](=O)[O-])ccc1C(=O)O | inactive; no positive results
Oc1ccc(Cl)cc1Cl | inactive; no positive results
Cc1c(N)cccc1N | inactive; no positive results
O=C(Nc1ccc([N+](=O)[O-])cc1Cl)c1cc(Cl)ccc1O | inactive; no positive results
OCC(O)CCl (configuration not stated) | inactive; no positive results
CC1=C(/C=C/C(C)=C/C=C/C(C)=C/C(=O)O)C(C)(C)CCC1 | inactive; no positive results
COC(=O)[C@H](Cc1ccccc1)NC(=O)[C@@H](N)CC(=O)O (H-Asp-Phe-OMe) | inactive; no positive results
C=C1C[C@@]23CC[C@H]4[C@@](C)(CCC[C@@]4(C)C(=O)O[C@@H]4O[C@H](CO)[C@@H](O)[C@H](O)[C@H]4O)[C@@H]2CC[C@]1(O[C@@H]1O[C@H](CO)[C@@H](O)[C@H](O)[C@H]1O[C@@H]1O[C@H](CO)[C@@H](O)[C@H](O)[C@H]1O)C3 | inactive; no positive results

— PubChem BioAssay AID1208 (EPA DSSTox, 2008)
